Experiments:
[1] = target: T1, Fatty-acid amide hydrolase 1 (Homo sapiens, UniProt O00519); assay: Inhibition of human recombinant FAAH using AMC arachidonoyl amide as substrate after 30 mins by fluorescence assay
T1 sequence (O00519 whole entry): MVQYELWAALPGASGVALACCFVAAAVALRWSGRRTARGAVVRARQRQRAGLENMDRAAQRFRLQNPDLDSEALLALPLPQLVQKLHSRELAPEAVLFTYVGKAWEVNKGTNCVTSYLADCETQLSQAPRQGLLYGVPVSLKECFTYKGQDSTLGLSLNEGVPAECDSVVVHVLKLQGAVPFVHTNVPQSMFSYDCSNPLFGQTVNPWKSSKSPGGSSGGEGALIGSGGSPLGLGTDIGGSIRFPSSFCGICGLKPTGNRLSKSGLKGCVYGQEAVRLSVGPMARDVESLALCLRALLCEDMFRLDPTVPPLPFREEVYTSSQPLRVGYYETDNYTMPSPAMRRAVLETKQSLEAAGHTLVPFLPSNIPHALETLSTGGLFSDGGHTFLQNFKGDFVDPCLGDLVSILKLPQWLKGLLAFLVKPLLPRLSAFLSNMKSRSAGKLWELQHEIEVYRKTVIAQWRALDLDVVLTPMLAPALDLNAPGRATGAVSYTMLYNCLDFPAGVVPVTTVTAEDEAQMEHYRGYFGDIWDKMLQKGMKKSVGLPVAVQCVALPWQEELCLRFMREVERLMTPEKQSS

Monoglyceride lipase = target: T2, Monoglyceride lipase (Homo sapiens, UniProt Q99685); assay: Inhibition of human recombinant MAGL using 4-nitrophenylacetate as substrate after 30 mins
T2 sequence (Q99685 whole entry): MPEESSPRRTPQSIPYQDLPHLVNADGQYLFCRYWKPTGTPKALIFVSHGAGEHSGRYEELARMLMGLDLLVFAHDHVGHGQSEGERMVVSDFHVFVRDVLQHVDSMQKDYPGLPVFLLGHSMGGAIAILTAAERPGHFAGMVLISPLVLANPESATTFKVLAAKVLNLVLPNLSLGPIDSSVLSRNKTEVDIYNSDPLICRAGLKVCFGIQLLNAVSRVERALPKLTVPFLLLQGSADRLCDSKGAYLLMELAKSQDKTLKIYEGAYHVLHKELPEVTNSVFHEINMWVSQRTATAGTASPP

Homo sapiens = species: Homo sapiens; assay: Selectivity index, ratio of IC50 for human recombinant MAGL to IC50 for human recombinant FAAH
[2] = target: T1, Fatty-acid amide hydrolase 1; assay: Inhibition of human recombinant FAAH using AMC arachidonoyl amide as substrate preincubated with protein for 0 min followed by substrate addition by fluorescence assay
[3] = target: T1, Fatty-acid amide hydrolase 1; assay: Inhibition of human recombinant FAAH using AMC arachidonoyl amide as substrate preincubated with protein for 30 mins followed by substrate addition by fluorescence assay
[4] = target: T1, Fatty-acid amide hydrolase 1; assay: Inhibition of human recombinant FAAH using AMC arachidonoyl amide as substrate preincubated with protein for 60 mins followed by substrate addition by fluorescence assay

Row | Compound | IC50 [1] [nM] | other results
1 | CCOC(=O)c1cc(-c2cccc(OC(=O)NC3CCCCC3)c2)nn1-c1ccc(Cl)cc1 | 353 | 
2 | CCOC(=O)c1cc(-c2ccc(OC(=O)NC3CCCCC3)cc2)nn1-c1ccc(Cl)cc1 | 586 | 
3 | NC(=O)c1cc(-c2ccc(OC(=O)NC3CCCCC3)cc2)n(-c2ccc(Cl)cc2)n1 | 172 | 
4 | CC(C)NC(=O)c1cc(-c2cccc(OC(=O)NC3CCCCC3)c2)n(-c2ccccc2)n1 | 232 | 
5 | CCOC(=O)c1cc(-c2cccc(OC(=O)NC3CCCCC3)c2)n(-c2ccc(C(F)(F)F)cc2)n1 | 132 | 
6 | CCOC(=O)c1cc(-c2cccc(OC(=O)NC3CCCCC3)c2)n(C)n1 | 303 | 
7 | CCCCCCNC(=O)Oc1cccc(-c2cc(C(=O)OCCC)nn2-c2ccccc2)c1 | 101 | 
8 | CCOC(=O)c1cc(-c2ccc(OC(=O)NC3CCCCC3)cc2)n(CC)n1 | 214 | 
9 | COC(=O)c1cc(-c2cccc(OC(=O)NC3CCCCC3)c2)n(-c2ccccc2)n1 | 18 | IC50 (Monoglyceride lipase): 49000 nM; Ratio IC50 (Homo sapiens): 2750
10 | CCOC(=O)c1cc(-c2cccc(OC(=O)NC3CCCCC3)c2)n(-c2ccccc2)n1 | 11 | IC50 (Monoglyceride lipase): 21000 nM; Ratio IC50 (Homo sapiens): 1840
11 | CCOC(=O)c1cc(-c2cccc(OC(=O)NC3CCCCC3)c2)nn1-c1ccc(OC)cc1 | 407 | 
12 | CCOC(=O)c1cc(-c2ccc(OC(=O)NC3CCCCC3)cc2)nn1C | 316 | 
13 | CCOC(=O)c1cc(-c2cccc(OC(=O)NC3CCCCC3)c2)n(-c2ccc(OC)cc2)n1 | 103 | 
14 | O=C(NC1CCCCC1)Oc1cccc(-c2cc(CO)nn2-c2ccccc2)c1 | 462 | 
15 | CCN(CC)C(=O)c1cc(-c2cccc(OC(=O)NC3CCCCC3)c2)n(-c2ccccc2)n1 | 448 | 
16 | CCOC(=O)c1cc(-c2cccc(OC(=O)NC3CCCCC3)c2)n(-c2ccc(C)cc2)n1 | 29 | IC50 (Monoglyceride lipase): 34000 nM; Ratio IC50 (Homo sapiens): 1190
17 | CCOC(=O)c1cc(-c2ccc(OC(=O)NC3CCCCC3)cc2)n(-c2ccccc2)n1 | 268 | 
18 | NC(=O)c1cc(-c2cccc(OC(=O)NC3CCCCC3)c2)n(-c2ccccc2)n1 | 169 | 
19 | CCOC(=O)c1cc(-c2ccc(OC(=O)NC3CCCCC3)cc2)n(C)n1 | 81 | 
20 | CCOC(=O)c1cc(-c2cccc(OC(=O)NC3CCCCC3)c2)n(-c2ccc([N+](=O)[O-])cc2)n1 | 78 | 

Row | Compound | IC50 [1] [nM] | other results
21 | CCOC(=O)c1cc(-c2ccc(OC(=O)NC3CCCCC3)cc2)nn1-c1ccccc1 | 592 | 
22 | CCOC(=O)c1cc(-c2cccc(OC(=O)NC3CCCCC3)c2)nn1-c1ccccc1 | 539 | 
23 | CCOC(=O)c1cc(-c2cccc(OC(=O)NC3CCCCC3)c2)nn1CC | 507 | 
24 | NC(=O)c1cc(-c2cccc(OC(=O)NC3CCCCC3)c2)n(-c2ccc(Cl)cc2)n1 | 174 | 
25 | COc1ccc(-n2nc(C(N)=O)cc2-c2cccc(OC(=O)NC3CCCCC3)c2)cc1 | 743 | 
26 | O=C(NC1CCCCC1)Oc1cccc(-c2cc(C(=O)O)nn2-c2ccccc2)c1 | 2270 | 
27 | NC(=O)c1cc(-c2ccc(OC(=O)NC3CCCCC3)cc2)n(-c2ccccc2)n1 | 71 | 
28 | CCOC(=O)c1cc(-c2cccc(OC(=O)NC3CCCCC3)c2)n(-c2ccc(Cl)cc2Cl)n1 | 123 | 
29 | CCOC(=O)c1cc(-c2ccc(OC(=O)NC3CCCCC3)cc2)nn1-c1ccc(OC)cc1 | 159 | 
30 | CCOC(=O)c1cc(-c2cccc(OC(=O)NC3CCCCC3)c2)n(-c2ccc(Cl)cc2)n1 | 17 | IC50 (Monoglyceride lipase): 83000 nM; Ratio IC50 (Homo sapiens): 4900; IC50 [2]: 15 nM; IC50 [3]: 17 nM; IC50 [4]: 18 nM
31 | CCOC(=O)c1cc(-c2cccc(OC(=O)NC3CCCCC3)c2)n(Cc2ccccc2)n1 | 70 | 
32 | COc1nn(-c2ccc(NC(=O)OCc3ccccc3)c(C)c2)c(=O)o1 | 14 | IC50 [2]: 13 nM; IC50 [3]: 3.5 nM; IC50 [4]: 1.9 nM
33 | CCOC(=O)c1cc(-c2cccc(OC(=O)NC3CCCCC3)c2)nn1C | 227 | 
34 | CCCOC(=O)c1cc(-c2cccc(OC(=O)NC3CCCCC3)c2)n(-c2ccccc2)n1 | 27 | IC50 (Monoglyceride lipase): 38000 nM; Ratio IC50 (Homo sapiens): 1380
35 | CCOC(=O)c1cc(-c2ccc(OC(=O)NC3CCCCC3)cc2)n(-c2ccc(Cl)cc2)n1 | 281 | 
36 | Cn1nc(C(N)=O)cc1-c1ccc(OC(=O)NC2CCCCC2)cc1 | 209 | 
37 | CCOC(=O)c1cc(-c2ccc(OC(=O)NC3CCCCC3)cc2)nn1CC | 603 | 
38 | CCOC(=O)c1cc(-c2cccc(OC(=O)NC3CCCCC3)c2)n(CC)n1 | 101 | 
39 | O=C(NC1CCCCC1)Oc1cccc(-c2cc(C(=O)NC3CCCCC3)nn2-c2ccccc2)c1 | 288 | 
40 | CCCCCCNC(=O)Oc1cccc(-c2cc(C(=O)OCC)nn2-c2ccccc2)c1 | 88 | 

From ChEMBL document CHEMBL3421629, “Pyrazole phenylcyclohexylcarbamates as inhibitors of human fatty acid amide hydrolases (FAAH)” (Eur J Med Chem, 2015)
